`COC(=O)Cc1ccc(OCc2ccc3ccccc3n2)c(Cl)c1` showed a melting point of 79 °C.
Compound `O=C(O)c1ccc(OC(=O)c2ccc(O)c(C34CC5CC(CC(C5)C3)C4)c2)cc1` has a melting point of 269 to 271 °C.
In the case of `OCCN1CCC(=C2c3sccc3CCn3ncnc32)CC1`, the melting point is reported as 150 °C.
In the case of `COCC(O)Cc1ccc(-c2ccc3cc(C(=O)O)ccc3c2)cc1C12CC3CC(CC(C3)C1)C2` (centres undefined), the melting point is reported as 240 to 242 °C.
`O=C1CCCN(C(=O)c2ccccc2)C(=O)CCc2cc(Cl)ccc21` showed a melting point of 129 to 131 °C.
With `CCC(CC)N(C)Cc1ccc(NC(=O)C2=Cc3cc(-c4ccc(C)cc4)ccc3SCC2)cc1` the melting point was 136 to 137 °C.
Work on `NC(=O)N(O)[C@H]1CC[C@H](c2cccc(F)c2)C1` (relative stereo) yielded a melting point of 113 to 114 °C.
Work on `Fc1ccc2[nH]cc(C3=CCN(CC4COc5ccc6c(c5O4)CCCO6)CC3)c2c1` (centres undefined) yielded a melting point of 205 to 206 °C.
For `O=C(CC1c2ccc(-c3ccccc3)cc2S(=O)(=O)N1c1ccccc1)NO` (centres undefined), the melting point was 191 to 193 °C.
With `N#Cc1cccc(C2=Nc3ccc(C=Cc4ccccc4)cc3NC(=O)C2)c1` the melting point was 185 to 188 °C.
In the case of `CCOCc1nc2c(N)nc3cc(OCCCCCCNC(=O)CCS)ccc3c2n1CC(C)(C)NS(C)(=O)=O`, the melting point is reported as 152 to 157 °C.
Compound `CCC1(CC(=O)OC)OCC(O)c2c1[nH]c1ccccc21` (centres undefined) has a melting point of 86 to 90 °C.
`CCc1ncnc(NC(CC)c2ccc(Oc3ncccn3)cc2)c1Cl` (centres undefined) showed a melting point of 100 to 112 °C.
Compound `COc1ccc(-c2ccc3c(c2)CC[C@H]2N(C)C(=O)CC[C@]32C)cc1` has a melting point of 150 °C.
In the case of `CC(=O)N1CCC(c2nccc3occc23)CC1`, the melting point is reported as 108 to 110 °C.
Work on `CC(C)N(C(=O)CC=C1CSC(N)=N1)c1ccc(Cl)cc1` yielded a melting point of 145 to 147 °C.
In the case of `CC(CC(C#N)(c1ccccc1)c1ccccn1)N1CCN(C)CC1` (centres undefined), the melting point is reported as 89 to 90 °C.
`CCOc1ccc(-c2nc(-c3cccc(C(=O)O)c3)cs2)cc1OCC` gave a melting point of 192 to 193 °C.
For `COC(=O)CC(C)N=c1sc2ccccc2s1` (centres undefined), the melting point was 78 to 80 °C.
In the case of `CCOC1=C(N(C(C)=O)C(C)C)C(=O)c2cnn(C)c2C1=O`, the melting point is reported as 154 to 155 °C.
For `CC1(C(N)=O)CCC=[N+]1[O-]` (centres undefined), the melting point was 134 to 135 °C.
Work on `CSc1ccc(NC(=N)c2ccc(Cl)cc2)cc1` yielded a melting point of 148 to 150 °C.
For `CN(C(=O)N1CCN2C(=O)OC(c3ccccc3)(c3ccccc3)C2C1)c1ccccc1` (centres undefined), the melting point was 146 to 147 °C.
`CCOC(=O)N1CCC(Nc2nc3cncnc3n2C2CC2)CC1` gave a melting point of 177 °C.
`Cc1cc(C)c(C=O)c(-c2ccc(Cl)c(Cl)c2)c1` gave a melting point of 80 to 81 °C.
Compound `Cn1ncc2[nH]c3c(Br)cccc3c(=O)c21` has a melting point of 287 °C.
In the case of `Cc1ncn(-c2ccc(C=O)cc2)n1`, the melting point is reported as 125 to 128 °C.
`O=C(Nc1ccc(F)cc1F)C(=O)c1c2n(c3ccccc13)CCNCC2` gave a melting point of 184 to 186 °C.
With `COc1ccc(C(CN(C)C)c2nnc3n2-c2ccc(Cl)cc2C(c2ccccc2)=NC3)cc1` (centres undefined) the melting point was 138 to 142 °C.
With `CN(CC(=O)Nc1cccc(-c2cc(-c3ccccc3O)nc(NC(=O)c3cccs3)c2C#N)c1)C(=O)OC(C)(C)C` the melting point was 143 to 149 °C.
Compound `COc1ccc(C(=O)Nc2ccccc2)cc1NCc1ccc(N(C)C)cc1` has a melting point of 195 to 197 °C.
`COc1ccc2[nH]c(C(=O)c3ccccc3)c(NC(C)=O)c2c1` showed a melting point of 258 to 260 °C.
In the case of `CN1CCC(=O)N(c2cccc3ccccc23)C1=O`, the melting point is reported as 228 to 229 °C.
`N#Cc1[nH]c([N+](=O)[O-])c(Br)c1Br` gave a melting point of 181 to 186 °C.
For `Oc1ccc2nc(-c3ccc(O)c(F)c3)cc(C#Cc3ccccc3)c2c1`, the melting point was 125 to 129 °C.
`O=C1/C(=C(\NCCO)c2ccccc2)Sc2ccccc21` showed a melting point of 122 to 123 °C.
In the case of `COc1cc(C2=Nc3ccc(N4CCCC4)cc3C(=O)C2)ccc1OCc1ccccc1`, the melting point is reported as 304 to 306 °C.
`Cc1ccccc1C1C(=O)CC2CCCCC2C1=O` (centres undefined) gave a melting point of 165 to 167 °C.
`CSc1ccc(C(C)=Cc2ccc3ccccc3c2)cc1` gave a melting point of 161 °C.
Work on `COc1ccc(C(OCC2(COS(=O)(=O)c3ccc(C)cc3)OC(n3ccc(=O)[nH]c3=O)C(O)C2O)(c2ccccc2)c2ccc(OC)cc2)cc1` (centres undefined) yielded a melting point of 104 to 105 °C.
Compound `CCCCOc1ncc(C(C)=O)cc1-c1nc2c(CC)n(C3CCN(C(=O)OC(C)(C)C)CC3)nc2c(=O)[nH]1` has a melting point of 194 to 195 °C.
Work on `C=C(C)Cn1c(C)c(C)c2cnnc(OCc3ccc(F)cc3)c21` yielded a melting point of 118 to 120 °C.
In the case of `O=C1C(CCO)Oc2ccccc2N1Cc1ccncc1` (centres undefined), the melting point is reported as 153 to 154 °C.
Work on `O=C(OCc1ccc(Br)cc1)C1C(=O)OC2CC(=O)N21` (centres undefined) yielded a melting point of 106 °C.
Work on `COC(=O)c1cc2nc(C)oc2cc1C(=O)OC` yielded a melting point of 121 to 124 °C.
In the case of `CC1(C)OC(=O)Nc2ncc(-c3cccc(Cl)c3)cc21`, the melting point is reported as 214 to 215 °C.
Work on `COCCCNCCCc1ccc(-c2cnc(N)c(C(=O)Nc3cccnc3)n2)cc1` yielded a melting point of 113 °C.
`O=C(NC(=O)c1ccc(F)c(OC(F)F)c1F)NC1CC1` showed a melting point of 128 to 130 °C.
In the case of `O=[N+]([O-])c1ccc2nc(-c3ccc(Cl)cc3)sc2c1`, the melting point is reported as 227 to 232 °C.

From a melting point compilation (Tetko et al.; mined from patent text by program, amines drawn as free bases though some values may be those of a salt)
